One may read the kinetic solubility as solubility judged after dilution from a stock solution rather than from solid.

This note sets out measurements from PubChem BioAssay AID1996.

Converted amounts (≈) assume the structure as drawn. Where only a bound is given, the exact number is not on record here.

The conditions of this data set: buffer; pH 7.4; 200.0 µM.
Consider `O=S(=O)(c1cccc(C(F)(F)F)c1)N1CCN(c2cnccn2)CC1`, for which the kinetic solubility was 25.1 µg/mL (≈ 67.4 µM).

As to `CC(C)OP(=O)(OC(C)C)C(O)c1ccc(N(C)C)cc1` (centres undefined), the solubility (kinetic) is > 47.3 µg/mL.

With `COC(=O)c1ccccc1C(=O)N(c1ccccc1)c1ccccc1`, the kinetic solubility amounted to 44.4 µg/mL (≈ 134 µM). The same measure for `O=C(Cc1ccc(Cl)cc1)Nc1ccc(CN2CCCCC2)cc1`: > 51.4 µg/mL; for `O=C(Nc1c(-c2cccs2)nc2ccccn12)c1ccccc1F`: 47.1 µg/mL (≈ 140 µM). Under `C=CCn1c(O)c(N=O)c2cc(C)ccc21` stands > 32.4 µg/mL; under `CNc1snc(C)c1C(=O)OC(C)C(=O)Nc1ccc(F)cc1` (centres undefined), > 50.6 µg/mL; under `O=C(CC1CCCC1)Nc1cccc(Br)c1`, 18.1 µg/mL (≈ 64.1 µM).

Compound `O=c1c2ccccc2nc(Cc2cccc([N+](=O)[O-])c2)n1-c1ccc(O)cc1` gave a solubility (kinetic) of 47.8 µg/mL (≈ 128 µM). This solubility kinetic lies about 2.6-fold higher than the previous one. Under `Cc1cc(=O)[nH]c(-c2ccc(Cl)cc2)n1` stands > 33.1 µg/mL.

For the compound `O=C(Nc1ccc([N+](=O)[O-])cc1)C1COc2ccccc2O1` (centres undefined), the solubility (kinetic) came to 0.9 µg/mL (≈ 3 µM). The same measure for `CC1=Nc2ccccc2/C1=C/c1c(O)n(C)c(=O)[nH]c1=O`: > 42.5 µg/mL. `CN1CCc2c(sc(/N=C/c3cc(C(C)(C)C)ccc3O)c2C#N)C1` yielded a kinetic solubility of 3.4 µg/mL (≈ 9.62 µM). The same measure for `Cc1ccc(N=CC2=C(O)CC(c3ccccc3Cl)CC2=O)cc1` (centres undefined): < 0.7 µg/mL.

As for `O=C(Nc1nccs1)c1ccc2ccccc2n1`, the kinetic solubility amounted to 5.6 µg/mL (≈ 21.9 µM). As for `CC1(C)C(c2ccccc2)=NC(c2ccc(Br)cc2)N1O` (centres undefined), the kinetic solubility is 3.7 µg/mL (≈ 10.7 µM). This solubility kinetic is about 1.5-fold lower than that of the compound before. For the compound `O=C1CCN(C(=O)Cc2ccccc2[N+](=O)[O-])CC1`, the solubility (kinetic) is > 39.3 µg/mL. The same measure for `Cc1cc(C(=O)OCC(=O)N2C(C)CCCC2C)c2ccccc2n1` (centres undefined): > 51.1 µg/mL; for `CN1CCN(S(=O)(=O)Cc2ccccc2Cl)CC1`: > 43.3 µg/mL. Take `O=C(O)/C=C/C(=O)NC1CC1`: the solubility (kinetic) is > 23.3 µg/mL. Under `O=C(C(=S)N1CCOCC1)c1c[nH]c2ccccc12` stands > 41.2 µg/mL; under `COc1ccc(SCCC(=O)NCc2ccncc2)cc1`, > 45.4 µg/mL; under `O=C1CC(N2CCSCC2)C(=O)N1c1cccc(Cl)c1` (centres undefined), > 46.6 µg/mL. Under `O=C(C1CC(=O)N(c2ccc(F)cc2)C1)N1CCCCC1` (centres undefined) stands 39 µg/mL (≈ 134 µM). Under `CC(CN1CCCCC1)OC(=O)c1cccc(F)c1.Cl` (centres undefined) stands 42.4 µg/mL. Compound `O=C(Nc1ccc(Nc2ccccc2)cc1)c1ccccc1` came in with a solubility (kinetic) of 1.6 µg/mL (≈ 5.55 µM). The same measure for `CCC(=O)N1CCN(c2ccccc2NC(=O)c2ccc([N+](=O)[O-])o2)CC1`: 32.4 µg/mL (≈ 87 µM). For the compound `COC(=O)c1c(C)oc(C)c1S(=O)(=O)N1CCCCC1`, the solubility (kinetic) was found to be 34.8 µg/mL (≈ 115 µM).

Compound `Cn1c(N)c(C(=O)Nc2ccccc2F)sc1=S` returned a kinetic solubility of 4.4 µg/mL (≈ 15.5 µM). Under `Cn1c(SCc2ccccc2C#N)nc2ccccc2c1=O` stands 1 µg/mL (≈ 3.25 µM); under `CCOc1ccc2[nH]c3c(NCCN(C)C)ncnc3c2c1`, > 44.9 µg/mL. Under `Nc1ccc(N2CCOCC2)cc1C(F)(F)F` stands 33.9 µg/mL (≈ 138 µM); under `Cc1cccc(-c2nc(C)cc(=O)[nH]2)c1`, > 30 µg/mL; under `COc1ccc(CNC(=O)Nc2cc(C)cc(C)c2)cc1`, 0.8 µg/mL (≈ 2.81 µM). Under `Cc1ccc(C(=O)Nc2ccc3c(c2)OCO3)cc1Cl` stands < 0.6 µg/mL. As to `CN(C(=O)Nc1cccc(C(F)(F)F)c1)C1CCCCC1`, the kinetic solubility was < 0.3 µg/mL. The same measure for `CN(c1ccccc1C(=O)Nc1ccc2ccccc2c1)S(C)(=O)=O`: 48.6 µg/mL (≈ 137 µM); for `COc1cccc(-n2cnc3sc(C)cc3c2=O)c1`: 40.3 µg/mL (≈ 148 µM); for `CCCCOC(=O)N1CCOCCOCCOCC1`: 40.2 µg/mL (≈ 146 µM). The same measure for `Cc1ccc(-n2c(SCC(=O)NCC3CCCO3)nc3ccccc3c2=O)cc1` (centres undefined): 32.4 µg/mL (≈ 79.1 µM); for `CC(C)CC(=O)Nc1ccccc1N1CCN(c2ccccc2)CC1`: 1.6 µg/mL (≈ 4.74 µM). Under `CC(C)(C)c1cc(-c2ccccc2)no1` stands 0.8 µg/mL (≈ 3.97 µM). As to `Cc1cc(NC(=O)CSCC(=O)NC(C)c2ccccc2)no1` (centres undefined), the solubility (kinetic) is > 50 µg/mL.

As for `O=C(Nc1ccc(Cl)cc1Cl)c1cc2ccccc2o1`, the solubility (kinetic) is < 0.7 µg/mL. As for `O=C(Nc1nc2ccccc2s1)Nc1ccc(F)cc1F`, the solubility (kinetic) is < 0.2 µg/mL.

As for `Cc1ccc(/C(O)=C2\C(=O)C(=O)N(C)C2c2ccc(F)cc2)cc1` (centres undefined), the solubility (kinetic) was > 48.8 µg/mL.

Consider `COc1ccccc1C(=O)Nc1ccc(NC(=O)c2ccco2)cn1`, for which the solubility (kinetic) turned out to be 0.7 µg/mL (≈ 2.08 µM). Regarding `O=C1NC(=O)C(Cc2c[nH]c3ccccc23)N1` (centres undefined), the solubility (kinetic) was > 34.4 µg/mL.

In turn, `CC1CN(c2nc(N(C)c3ccccc3)nc(N)c2[N+](=O)[O-])CC(C)O1` (centres undefined) gave a kinetic solubility of 28.6 µg/mL (≈ 79.8 µM). The same measure for `COCCn1c(SCC(=O)Nc2cccnc2Cl)nc2ccccc21`: 7.4 µg/mL (≈ 19.6 µM). Under `O=C(CCc1nc(-c2ccc(F)cc2)no1)NCc1ccccc1CN1CCOCC1` stands > 63.7 µg/mL. The same measure for `COc1ccc(CSc2nc(O)cc(=O)n2CC(C)C)cc1F`: > 50.8 µg/mL. Take `O=C(/C=C/c1c(F)cccc1Cl)N1CCOCC1`: the kinetic solubility is 39.8 µg/mL (≈ 148 µM). Under `CC(=O)Nc1ccc(N2C(=O)CSC2c2ccccc2)cc1` (centres undefined) stands > 46.9 µg/mL; under `CCN(Cc1nc(-c2cccc(C)c2)no1)C(=O)c1ccco1`, 44.4 µg/mL (≈ 143 µM). Under `O=C(CN1CCOCC1)Nc1ccc(NC(=O)c2ccccc2F)cc1` stands > 53.6 µg/mL; under `CCOC(=O)CC(=O)CSc1nc(CC)c(C)cc1C#N`, > 46 µg/mL. Regarding `Cl.OCCN1C2=NCCCN2c2ccccc21`, the solubility (kinetic) was > 38.1 µg/mL. Turning to `CC(=O)c1ccc(NC(=O)C2C3CCC(C3)C2C(=O)O)cc1` (centres undefined), the kinetic solubility is > 45.2 µg/mL.

`Cn1c(=O)n(C)c2cc(NC(=O)Cc3ccccc3[N+](=O)[O-])ccc21` yielded a kinetic solubility of 47.6 µg/mL (≈ 140 µM).

Turning to `CN1CCN(C(=O)c2cc(Br)cn2C)CC1`, the solubility (kinetic) is > 42.9 µg/mL. Under `Cc1ccccc1/C=C/c1nc2ccccc2c(=O)[nH]1` stands 0.4 µg/mL (≈ 1.52 µM); under `NC(=O)c1cc(S(=O)(=O)Nc2ccccc2)cs1`, > 42.3 µg/mL; under `CN1CCN(C(=S)NC(=O)c2ccccc2Cl)CC1`, > 44.7 µg/mL.

As to `COC(=O)[C@@H]1CCCN1Cc1nc(Cc2ccc(OC)c(OC)c2)no1`, the solubility (kinetic) was > 54.2 µg/mL.

As to `CN(CCO)CC(O)Cn1cnc2c1c(=O)n(C)c(=O)n2C.O=C(O)c1cccnc1` (centres undefined), the kinetic solubility was > 65.2 µg/mL.

As for `COC(=O)c1ccccc1NC(=O)CCn1c(=O)oc2ccccc21`, the solubility (kinetic) is > 51.1 µg/mL. The same measure for `CS(=O)(=O)N(CC(=O)NC1CCCCC1)c1cccc(F)c1`: 48.1 µg/mL (≈ 146 µM); for `Cl.Nc1nc2cc3ccccc3cc2[nH]c1=O`: 5.2 µg/mL. The compound `O=C(Nc1cccc(Cl)c1)Nc1sccc1-c1nc2ccccc2s1` had a solubility (kinetic) of 4.5 µg/mL (≈ 11.7 µM). The same measure for `CC(C)CN=Cc1c(O)c([N+](=O)[O-])cc2oc3c(c12)CCCC3`: 6.5 µg/mL (≈ 20.5 µM); for `COc1ccc2nc(SCC(=O)NC3CCCCC3)[nH]c2c1`: > 47.9 µg/mL. Under `CC(C)CC(=O)N/C(N)=N/c1nc2ccccc2o1` stands 1.3 µg/mL (≈ 4.99 µM); under `CCC(=O)c1ccc(OCC(=O)OCC(=O)N(CCC#N)c2ccc3c(c2)OCCO3)cc1`, 47.5 µg/mL (≈ 105 µM); under `COc1ccccc1N1CC(C)(C)C(=O)N(C(=O)c2ccc(C)cc2)C1=S`, 2.1 µg/mL (≈ 5.49 µM). The same measure for `CC1CN(c2ccc(S(=O)(=O)N3CCCC3)cn2)CC(C)O1` (centres undefined): > 48.8 µg/mL; for `COc1ccc(S(=O)(=O)N2CCCC2)cc1Br`: 33.9 µg/mL (≈ 106 µM); for `O=C(CCc1nc(-c2ccccc2Cl)no1)Nc1cccnc1`: 49.3 µg/mL (≈ 150 µM). The compound `CC(=O)Nc1nc2ccccc2n1Cc1ccccc1Cl` registered a kinetic solubility of 5.2 µg/mL (≈ 17.3 µM). Consider `Cc1ccccc1-n1cc[nH]c1=S`, for which the solubility (kinetic) was > 28.5 µg/mL. Turning to `Cc1cc(=S)c2cccc(C)c2[nH]1`, the kinetic solubility came to 26.5 µg/mL (≈ 140 µM).

`COc1ccc(-c2nnc(SCC(=O)N(C)C3CCS(=O)(=O)C3)n2C(C)C)cc1` (centres undefined): the solubility (kinetic) was > 65.8 µg/mL.

Compound `O=C(O)CC1(CC(=O)NCc2csc(-c3cccs3)n2)CCCCC1` came in with a kinetic solubility of 44.9 µg/mL (≈ 119 µM). As for `O=C(CSc1ccc(F)cc1)NC12CC3CC(CC(C3)C1)C2`, the solubility (kinetic) was 1.1 µg/mL (≈ 3.44 µM). The same measure for `CC1CCC(NC(=O)C(=O)Nc2ccc3c(c2)OCO3)CC1` (centres undefined): 0.5 µg/mL (≈ 1.64 µM). For `Cc1ccc(NC(=O)CSc2cccc3cccnc23)c(C)c1`, the kinetic solubility stood at 5.2 µg/mL (≈ 16.1 µM). Against the preceding compound, the solubility kinetic is about 10-fold higher. With `CCCOc1ccc(CNC(=S)Nc2ccccc2)cc1Cl`, the solubility (kinetic) stood at 1.9 µg/mL (≈ 5.67 µM). In the case of `CCCCc1nc2ccccc2[nH]1`, the kinetic solubility is > 26.1 µg/mL. Under `CC(Nc1c([N+](=O)[O-])c(=O)oc2ccccc12)c1ccccc1` (centres undefined) stands 8.8 µg/mL (≈ 28.4 µM); under `CCc1cccc2c1NC1(CCCC1)CC2C.Cl` (centres undefined), < 0.6 µg/mL. The same measure for `O=C(NC(=S)N1CCCCCC1)c1cccc([N+](=O)[O-])c1`: > 46.1 µg/mL. `Cc1nc(N2CCCCCC2)c2ccccc2n1.Cl`: the kinetic solubility is > 41.7 µg/mL.

Take `CC1(C(=O)N2CCN(C(=O)c3ccco3)CC2)CC1(Br)Br` (centres undefined): the solubility (kinetic) is > 63 µg/mL.

Turning to `CSCC[C@H](NC(=O)c1cccc(S(=O)(=O)N2CCN(C)CC2)c1)c1nc2ccccc2[nH]1`, the solubility (kinetic) was > 73.1 µg/mL. Under `CN(CCOc1ccccc1)CC(=O)Nc1cccc(C#N)c1` stands 43 µg/mL (≈ 139 µM); under `O=C(c1cc([N+](=O)[O-])[nH]n1)N1CCSCC1`, > 36.3 µg/mL; under `Cc1ccccc1-c1nc(CN2CCSCC2)c(C)o1`, 26.1 µg/mL (≈ 90.5 µM). The same measure for `O=C(CN1C(=O)NC2(CCc3ccccc32)C1=O)Nc1ccccc1Cl` (centres undefined): > 55.5 µg/mL. Under `COCc1c(C(=O)N2CCc3ccccc32)oc2ccccc12` stands 7.6 µg/mL (≈ 24.7 µM); under `Cc1[nH]c(=O)[nH]c(=O)c1N1CCOCC1`, > 31.7 µg/mL.

As for `NC(=O)c1ccccc1NC(=O)c1ccc2ccccc2c1`, the solubility (kinetic) is < 0.3 µg/mL. The same measure for `CC(=O)Nc1ccc(NS(=O)(=O)c2cccc3nonc23)cc1`: > 49.8 µg/mL. For the compound `Cc1sc2nc(-c3cccs3)oc(=O)c2c1C`, the solubility (kinetic) is < 0.6 µg/mL. The same measure for `COc1ccc(OCC(=O)Nc2nc3cc4c(cc3s2)OCCO4)cc1`: 4.6 µg/mL (≈ 12.4 µM).
